From publication PMC6010123, “Synthesis of chiral pyrazolo[4,3-e][1,2,4]triazine sulfonamides with tyrosinase and urease inhibitory activity” (Journal of Enzyme Inhibition and Medicinal Chemistry, 2016) come the findings set out here.

Assay [1] has as its target T1, Jack bean urease (EC 3.5.1.5) (Canavalia ensiformis, UniProt P07374).
T1 construct: purchased Sigma (St. Louis, MO, USA)
Put plainly: biochemical.

Assay [2] has as its target T2, Jack bean urease (Canavalia ensiformis, UniProt P07374).
T2 construct: purchased Sigma (St. Louis, MO, USA)
Put plainly: Kinetic study of urease inhibition (Lineweaver-Burk, secondary replot, Dixon plot). Format: biochemical. How it is done: Urease inhibition was measured by varying the concentration of urea in the presence of different concentrations (0, 0.125, 0.25 and 0.5 μM) of compound 8a. Inhibitory constant (Ki) was determined as the intersection on the X-axis of the secondary replot of 1/V (y-intercept of Lineweaver–Burk plot) versus inhibitor concentrations and by Dixon plot of inverse of velocities (1/V) versus inhibitor concentrations. Briefly the urea concentration was changed from 3.12 to 100 mM for urease kinetics studies and remaining procedure was same as describes in urease inhibition assay protocol. Urease activity was determined by measuring ammonia production using the indophenol method as reported previously. The results (change in absorbance per min) were processed by using SoftMaxPro software(Molecular Devices Corporation Sunnyvale, CA) and a Dixon plot was constructed by plotting (1/V) versus inhibitor concentration [I].

The target in assay [3] is mushroom tyrosinase (Agaricus bisporus, UniProt C7FF04). The assay can be described thus: Kinetic study of mushroom tyrosinase inhibition (Lineweaver-Burk, secondary replot, Dixon plot). Format: biochemical. The conditions noted are these: substrate L-DOPA. How it is done: Lineweaver–Burk plots of 1/absorbance versus 1/L-DOPA and 1/absorbance versus 1/Urea were used to determine the type of enzyme inhibition. A series of experiments were performed to determine the inhibition kinetics by following method[18] ^, [28] ^, [29]. Different inhibitor concentrations of compound 8b with 0, 15, 30, 61, 123 and 247 μM, 8j with 0, 14, 28 and 55.8 μM, respectively were used in case of mushroom tyrosinase inhibition. Substrate L-DOPA concentration was between 0.062 and 2 mM in all tyrosinase kinetic study. Pre-incubation and measurement time was the same as discussed in mushroom tyrosinase inhibition assay protocol. Maximal initial velocity was determined from initial linear portion of absorbance up to five minutes after addition of enzyme at a 30 s interval. The inhibition type on the enzyme was assayed by Lineweaver–Burk plots of inverse of velocities (1/V) versus inverse of substrate concentration 1/[S] mM ^− ^1, and the inhibition constant Ki was determined by two methods, by secondary replot of 1/V (y-intercept of Lineweaver–Burk plot) versus inhibitor concentrations and by Dixon plot of inverse of velocities (1/V) versus inhibitor concentrations.
Chain of mushroom tyrosinase (C7FF04 2-392): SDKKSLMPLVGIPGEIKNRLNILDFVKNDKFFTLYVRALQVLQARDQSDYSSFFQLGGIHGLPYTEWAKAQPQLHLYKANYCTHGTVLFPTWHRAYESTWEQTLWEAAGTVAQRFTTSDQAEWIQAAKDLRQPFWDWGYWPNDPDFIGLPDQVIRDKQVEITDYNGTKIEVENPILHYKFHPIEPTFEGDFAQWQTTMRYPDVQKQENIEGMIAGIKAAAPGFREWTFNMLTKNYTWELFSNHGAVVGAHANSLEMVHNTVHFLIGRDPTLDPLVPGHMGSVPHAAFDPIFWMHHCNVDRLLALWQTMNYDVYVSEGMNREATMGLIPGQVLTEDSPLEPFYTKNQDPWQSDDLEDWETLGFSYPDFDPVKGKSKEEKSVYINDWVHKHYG

In general, IC50 refers to the concentration that gives 50% inhibition. As usually defined, the Ki is the dissociation constant of the complex between target and ligand, obtained from inhibition or displacement. The low end stands for higher affinity, the high end for lower affinity.

Read-outs that look alike come from different tables or passages of the source.

T1 sequence (P07374 whole entry, looked up): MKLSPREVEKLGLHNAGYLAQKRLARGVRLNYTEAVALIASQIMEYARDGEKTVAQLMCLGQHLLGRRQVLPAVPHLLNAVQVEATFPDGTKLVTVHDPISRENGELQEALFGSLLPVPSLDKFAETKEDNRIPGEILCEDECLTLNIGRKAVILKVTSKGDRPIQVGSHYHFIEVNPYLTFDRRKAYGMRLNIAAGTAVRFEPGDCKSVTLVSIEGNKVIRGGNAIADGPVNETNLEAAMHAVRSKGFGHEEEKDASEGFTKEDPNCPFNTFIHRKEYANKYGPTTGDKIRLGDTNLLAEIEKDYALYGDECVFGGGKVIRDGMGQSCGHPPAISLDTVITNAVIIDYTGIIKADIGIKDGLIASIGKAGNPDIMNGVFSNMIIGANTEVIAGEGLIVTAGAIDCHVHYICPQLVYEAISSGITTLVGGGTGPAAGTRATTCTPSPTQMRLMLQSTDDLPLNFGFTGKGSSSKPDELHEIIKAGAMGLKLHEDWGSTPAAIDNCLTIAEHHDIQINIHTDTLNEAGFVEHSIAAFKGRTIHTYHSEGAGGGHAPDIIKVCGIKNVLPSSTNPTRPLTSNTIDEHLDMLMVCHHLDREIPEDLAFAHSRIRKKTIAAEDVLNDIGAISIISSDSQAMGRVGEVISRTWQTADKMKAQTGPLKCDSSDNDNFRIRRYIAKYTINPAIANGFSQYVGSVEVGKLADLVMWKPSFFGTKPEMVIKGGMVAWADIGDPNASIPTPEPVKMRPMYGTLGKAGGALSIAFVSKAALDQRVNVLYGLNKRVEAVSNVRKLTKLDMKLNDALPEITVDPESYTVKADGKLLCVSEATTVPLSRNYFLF
T2 sequence (P07374 whole entry, looked up): as above

`CCOc1ccc(S(=O)(=O)N[C@@H](C)CO)cc1-c1nnc2c(n1)c(C)nn2C` [8a, (S)-3-(1,3-dimethyl-1H-pyrazolo[4,3-e][1,2,4]triazin-5-yl)-4-ethoxy-N-(1-hydroxy-propan-2-yl)benzenesulfonamide] had an IC50 in assay [1] of 37 ± 3 nM. This molecule also displayed a Ki in assay [2] of 10 nM. Besides, the “Urease type of inhibition” value in assay [2] (Lineweaver-Burk plot, substrate urea) is “Mixed type”.

`CCOc1ccc(S(=O)(=O)N[C@H](C)CO)cc1-c1nnc2c(n1)c(C)nn2C` [8b, (R)-3-(1,3-dimethyl-1H-pyrazolo[4,3-e][1,2,4]triazin-5-yl)-4-ethoxy-N-(1-hydroxy-propan-2-yl)benzenesulfonamide] showed an IC50 in assay [1] of 84 ± 20 nM. For the same molecule, the “Mushroom tyrosinase type of inhibition” value in assay [3] is reported as “Noncompetitive”. As to `CCOc1ccc(S(=O)(=O)N[C@H](CO)C(C)C)cc1-c1nnc2c(n1)c(C)nn2C` [8c, (S)-3-(1,3-dimethyl-1H-pyrazolo[4,3-e][1,2,4]triazin-5-yl)-4-ethoxy-N-(1-hydroxy-3-methylbutan-2-yl)benzenesulfonamide], the half-maximal inhibitory concentration (IC50) in assay [1] is 78 ± 20 nM. With `CCOc1ccc(S(=O)(=O)N[C@@H](CO)C(C)C)cc1-c1nnc2c(n1)c(C)nn2C` [8d, (R)-3-(1,3-dimethyl-1H-pyrazolo[4,3-e][1,2,4]triazin-5-yl)-4-ethoxy-N-(1-hydroxy-3-methylbutan-2-yl)benzenesulfonamide], in assay [1], the IC50 was 64 ± 20 nM.

The molecule `CCOc1ccc(S(=O)(=O)NC[C@H](C)O)cc1-c1nnc2c(n1)c(C)nn2C` [8e, (S)-3-(1,3-dimethyl-1H-pyrazolo[4,3-e][1,2,4]triazin-5-yl)-4-ethoxy-N-(2-hydroxy-propyl)-benzenesulfonamide] registered an IC50 in assay [1] of 76 ± 7 nM.

In the case of `CCOc1ccc(S(=O)(=O)NC[C@@H](C)O)cc1-c1nnc2c(n1)c(C)nn2C` [8f, (R)-3-(1,3-dimethyl-1H-pyrazolo[4,3-e][1,2,4]triazin-5-yl)-4-ethoxy-N-(2-hydroxy-propyl)-benzenesulfonamide], the IC50 in assay [1] (read-out: Urease IC50, Jack bean urease, 100 mM urea, pH 8.2, 37 °C) came out at 44 ± 130 nM. `CCOc1ccc(S(=O)(=O)NC[C@H](O)CO)cc1-c1nnc2c(n1)c(C)nn2C` [8g, (S)-N-(2,3-dihydroxypropyl)-3-(1,3-dimethyl-1H-pyrazolo[4,3-e][1,2,4]triazin-5-yl)-4-ethoxybenzenesulfonamide] gave a half-maximal inhibitory concentration (IC50) in assay [1] of 63 ± 16 nM. As to `CCOc1ccc(S(=O)(=O)NC[C@@H](O)CO)cc1-c1nnc2c(n1)c(C)nn2C` [8h, (R)-N-(2,3-dihydroxypropyl)-3-(1,3-dimethyl-1H-pyrazolo[4,3-e][1,2,4]triazin-5-yl)-4-ethoxybenzenesulfonamide], in assay [1], the IC50 is 80 ± 14 nM. The same measure, in the same setting: as for `CCOc1ccc(S(=O)(=O)N[C@H](CO)CC(C)C)cc1-c1nnc2c(n1)c(C)nn2C` [8i, (S)-3-(1,3-dimethyl-1H-pyrazolo[4,3-e][1,2,4]triazin-5-yl)-4-ethoxy-N-(1-hydroxy-4-methylpentan-2-yl)benzenesulfonamide], the figure is 42 ± 12 nM. In assay [1], `CCOc1ccc(S(=O)(=O)N[C@@H](CO)CC(C)C)cc1-c1nnc2c(n1)c(C)nn2C` [8j, (R)-3-(1,3-dimethyl-1H-pyrazolo[4,3-e][1,2,4]triazin-5-yl)-4-ethoxy-N-(1-hydroxy-4-methylpentan-2-yl)benzenesulfonamide] displayed an IC50 of 80 ± 15 nM. In addition, the “Mushroom tyrosinase type of inhibition” value in assay [3] was “Mixed type”. On to `NC(N)=S` [Thio-Urea, thiourea, reference compound], for which, in assay [1] (Jack bean urease, 100 mM urea, pH 8.2, 37 °C, read-out: Urease IC50), the IC50 was 20700 ± 450 nM.
